Measurements from paper PMC5762315, “Inhibition of polo-like kinase 4 (PLK4): a new therapeutic option for rhabdoid tumors and pediatric medulloblastoma” (Oncotarget, 2017).
“And” between values parts separate entries of the source, which are not always exact repeats. Equal entries are not always repeated.

How the values were obtained:
Assay in all cases: LanthaScreen Eu Kinase Binding Assay, panel of 486 biochemical kinase assays
[1] = molecular target: various kinases (Homo sapiens, UniProt Q13163); conditions: MAP2K5 (MEK5)
[2] = molecular target: various kinases (Homo sapiens, UniProt Q9Y2K2); conditions: kinase SIK3; LanthaScreen Binding
[3] = molecular target: various kinases (Homo sapiens, UniProt Q92918); conditions: MAP4K1 (HPK1)
[4] = molecular target: various kinases (Homo sapiens, UniProt Q9UM73, R1275Q); conditions: ALK R1275Q
[5] = tested on: various kinases
[6] = molecular target: various kinases (Homo sapiens, UniProt P52564, S207E/T211E); conditions: MAP2K6 (MKK6) S207E T211E
[7] = molecular target: various kinases (Homo sapiens, UniProt Q9HBH9); conditions: MKNK2 (MNK2)
[8] = molecular target: various kinases (Homo sapiens, UniProt Q15835); conditions: GRK1
[9] = molecular target: various kinases (Homo sapiens, UniProt Q9UEW8); conditions: kinase STK39 (STLK3); LanthaScreen Binding
[10] = molecular target: various kinases (Homo sapiens, UniProt Q02750, S218D/S222D); conditions: MAP2K1 (MEK1) S218D S222D
[11] = molecular target: T1, various kinases (Homo sapiens, UniProt O75385); conditions: kinase ULK1; LanthaScreen Binding
T1 sequence (O75385 1-1050): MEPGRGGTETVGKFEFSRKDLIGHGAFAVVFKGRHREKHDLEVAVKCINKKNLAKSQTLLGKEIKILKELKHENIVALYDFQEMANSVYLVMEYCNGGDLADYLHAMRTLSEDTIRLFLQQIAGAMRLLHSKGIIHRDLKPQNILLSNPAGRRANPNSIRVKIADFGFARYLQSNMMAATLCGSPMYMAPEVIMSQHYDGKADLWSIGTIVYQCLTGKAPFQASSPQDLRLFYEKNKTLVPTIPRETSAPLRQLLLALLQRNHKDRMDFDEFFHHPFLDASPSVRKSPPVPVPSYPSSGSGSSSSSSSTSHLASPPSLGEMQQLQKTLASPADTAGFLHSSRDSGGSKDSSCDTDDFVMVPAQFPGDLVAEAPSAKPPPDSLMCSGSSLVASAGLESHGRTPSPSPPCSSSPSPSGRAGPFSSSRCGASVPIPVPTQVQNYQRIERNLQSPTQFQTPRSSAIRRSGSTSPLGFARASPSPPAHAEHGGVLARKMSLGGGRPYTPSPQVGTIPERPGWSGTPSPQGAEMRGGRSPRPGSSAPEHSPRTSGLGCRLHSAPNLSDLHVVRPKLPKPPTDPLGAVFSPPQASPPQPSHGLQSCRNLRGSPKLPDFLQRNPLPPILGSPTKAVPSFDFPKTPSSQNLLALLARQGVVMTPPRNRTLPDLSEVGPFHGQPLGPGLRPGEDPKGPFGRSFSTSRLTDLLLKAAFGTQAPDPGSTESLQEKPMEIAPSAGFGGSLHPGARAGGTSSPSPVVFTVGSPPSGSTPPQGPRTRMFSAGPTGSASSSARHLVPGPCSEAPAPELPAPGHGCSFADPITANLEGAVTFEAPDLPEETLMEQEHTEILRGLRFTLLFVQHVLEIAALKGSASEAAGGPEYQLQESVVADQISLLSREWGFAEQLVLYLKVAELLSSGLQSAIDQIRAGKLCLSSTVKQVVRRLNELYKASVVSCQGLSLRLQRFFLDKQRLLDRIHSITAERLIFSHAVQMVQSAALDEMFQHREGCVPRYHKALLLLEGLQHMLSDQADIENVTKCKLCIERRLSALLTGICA

[12] = molecular target: various kinases (Homo sapiens, UniProt Q08345); conditions: DDR1
[13] = molecular target: T2, various kinases (Homo sapiens, UniProt Q6PHR2); conditions: kinase ULK3; LanthaScreen Binding
T2 sequence (Q6PHR2 1-472): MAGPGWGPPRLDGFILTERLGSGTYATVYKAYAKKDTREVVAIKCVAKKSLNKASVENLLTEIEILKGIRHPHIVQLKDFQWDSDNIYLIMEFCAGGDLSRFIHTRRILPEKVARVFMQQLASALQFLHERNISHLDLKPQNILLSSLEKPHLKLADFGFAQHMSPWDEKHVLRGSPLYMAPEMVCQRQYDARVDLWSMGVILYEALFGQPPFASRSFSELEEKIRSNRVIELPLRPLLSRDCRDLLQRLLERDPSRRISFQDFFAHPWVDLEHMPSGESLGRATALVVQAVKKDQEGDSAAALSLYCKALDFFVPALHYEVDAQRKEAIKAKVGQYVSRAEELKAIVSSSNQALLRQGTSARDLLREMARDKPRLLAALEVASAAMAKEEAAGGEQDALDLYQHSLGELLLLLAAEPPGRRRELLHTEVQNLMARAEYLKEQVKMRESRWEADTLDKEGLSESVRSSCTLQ

[14] = molecular target: various kinases (Homo sapiens, UniProt Q02779); conditions: MAP3K10 (MLK2)
[15] = molecular target: various kinases (Homo sapiens, UniProt Q9BWU1)
[16] = molecular target: various kinases (Homo sapiens, UniProt Q15375); conditions: EPHA7
[17] = molecular target: various kinases (Homo sapiens, UniProt P19525); conditions: EIF2AK2 (PKR)
[18] = molecular target: various kinases (Homo sapiens, UniProt P37173); conditions: kinase TGFBR2; LanthaScreen Binding
[19] = molecular target: various kinases (Homo sapiens, UniProt Q9UBE8); conditions: NLK

Chain of various kinases (Homo sapiens, UniProt P37173) (P37173 23-567): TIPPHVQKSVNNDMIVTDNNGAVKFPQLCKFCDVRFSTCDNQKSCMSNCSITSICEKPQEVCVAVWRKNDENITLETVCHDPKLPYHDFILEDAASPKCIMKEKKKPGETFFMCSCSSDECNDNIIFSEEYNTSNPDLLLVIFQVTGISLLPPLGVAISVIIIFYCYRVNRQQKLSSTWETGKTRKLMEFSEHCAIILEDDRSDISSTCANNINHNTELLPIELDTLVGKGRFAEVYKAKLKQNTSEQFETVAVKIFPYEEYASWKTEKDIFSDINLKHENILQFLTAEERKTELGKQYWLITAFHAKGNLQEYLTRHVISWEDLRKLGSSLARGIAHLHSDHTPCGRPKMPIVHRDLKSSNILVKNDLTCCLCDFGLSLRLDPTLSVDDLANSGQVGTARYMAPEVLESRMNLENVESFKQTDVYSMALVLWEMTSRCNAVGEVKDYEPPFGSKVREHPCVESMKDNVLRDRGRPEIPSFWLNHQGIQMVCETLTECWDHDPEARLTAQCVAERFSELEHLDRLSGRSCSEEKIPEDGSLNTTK
Chain of various kinases (Homo sapiens, UniProt Q9Y2K2) (Q9Y2K2 whole entry): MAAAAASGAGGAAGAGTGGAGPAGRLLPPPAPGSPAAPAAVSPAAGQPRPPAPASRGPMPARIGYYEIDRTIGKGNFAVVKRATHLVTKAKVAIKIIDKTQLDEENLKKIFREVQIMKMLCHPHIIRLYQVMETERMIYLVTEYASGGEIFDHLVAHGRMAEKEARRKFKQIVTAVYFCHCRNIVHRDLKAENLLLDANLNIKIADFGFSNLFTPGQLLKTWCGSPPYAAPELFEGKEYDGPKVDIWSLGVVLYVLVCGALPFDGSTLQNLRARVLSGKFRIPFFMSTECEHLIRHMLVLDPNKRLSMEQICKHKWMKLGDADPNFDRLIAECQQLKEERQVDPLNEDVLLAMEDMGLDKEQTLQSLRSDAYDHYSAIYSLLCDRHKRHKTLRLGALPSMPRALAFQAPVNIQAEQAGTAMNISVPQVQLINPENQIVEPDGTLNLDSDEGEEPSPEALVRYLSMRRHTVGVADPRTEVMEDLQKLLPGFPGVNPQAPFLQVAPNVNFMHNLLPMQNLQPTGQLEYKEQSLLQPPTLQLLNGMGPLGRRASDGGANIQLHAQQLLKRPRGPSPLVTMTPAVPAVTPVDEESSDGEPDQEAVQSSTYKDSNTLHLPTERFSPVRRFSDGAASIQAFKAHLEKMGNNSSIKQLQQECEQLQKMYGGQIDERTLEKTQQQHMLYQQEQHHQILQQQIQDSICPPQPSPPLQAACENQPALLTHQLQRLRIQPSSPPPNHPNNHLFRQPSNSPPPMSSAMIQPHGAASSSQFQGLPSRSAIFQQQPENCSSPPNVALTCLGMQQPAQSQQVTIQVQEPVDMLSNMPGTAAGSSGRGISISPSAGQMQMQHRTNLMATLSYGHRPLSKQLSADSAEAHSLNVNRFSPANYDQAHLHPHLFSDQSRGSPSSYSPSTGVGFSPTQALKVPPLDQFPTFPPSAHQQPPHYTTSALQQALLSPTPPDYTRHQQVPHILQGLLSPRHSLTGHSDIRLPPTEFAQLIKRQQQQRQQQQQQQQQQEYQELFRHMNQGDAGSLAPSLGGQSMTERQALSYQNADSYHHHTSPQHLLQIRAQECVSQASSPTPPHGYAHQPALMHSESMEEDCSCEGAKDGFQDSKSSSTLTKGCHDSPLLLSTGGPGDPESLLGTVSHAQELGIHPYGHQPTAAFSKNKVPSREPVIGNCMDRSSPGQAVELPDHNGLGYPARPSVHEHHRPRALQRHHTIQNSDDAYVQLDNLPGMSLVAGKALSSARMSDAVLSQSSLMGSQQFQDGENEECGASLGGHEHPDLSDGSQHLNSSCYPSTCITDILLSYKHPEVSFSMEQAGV
Chain of various kinases (Homo sapiens, UniProt Q9BWU1) (Q9BWU1 whole entry): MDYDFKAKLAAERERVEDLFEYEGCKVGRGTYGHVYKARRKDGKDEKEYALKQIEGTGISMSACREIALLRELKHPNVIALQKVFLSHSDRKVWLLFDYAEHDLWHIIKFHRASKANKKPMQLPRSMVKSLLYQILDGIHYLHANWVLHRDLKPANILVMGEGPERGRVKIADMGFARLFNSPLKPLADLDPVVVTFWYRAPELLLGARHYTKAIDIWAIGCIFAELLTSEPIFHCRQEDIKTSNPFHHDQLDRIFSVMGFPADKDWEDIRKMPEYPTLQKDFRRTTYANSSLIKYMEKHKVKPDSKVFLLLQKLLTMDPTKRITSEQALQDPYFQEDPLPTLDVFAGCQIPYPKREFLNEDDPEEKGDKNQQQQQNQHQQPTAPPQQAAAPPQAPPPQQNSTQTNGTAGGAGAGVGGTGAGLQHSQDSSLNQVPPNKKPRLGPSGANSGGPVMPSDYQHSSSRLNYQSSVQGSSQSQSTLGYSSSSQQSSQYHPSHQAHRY
Chain of various kinases (Homo sapiens, UniProt Q02750, S218D/S222D) (Q02750 whole entry S218D/S222D): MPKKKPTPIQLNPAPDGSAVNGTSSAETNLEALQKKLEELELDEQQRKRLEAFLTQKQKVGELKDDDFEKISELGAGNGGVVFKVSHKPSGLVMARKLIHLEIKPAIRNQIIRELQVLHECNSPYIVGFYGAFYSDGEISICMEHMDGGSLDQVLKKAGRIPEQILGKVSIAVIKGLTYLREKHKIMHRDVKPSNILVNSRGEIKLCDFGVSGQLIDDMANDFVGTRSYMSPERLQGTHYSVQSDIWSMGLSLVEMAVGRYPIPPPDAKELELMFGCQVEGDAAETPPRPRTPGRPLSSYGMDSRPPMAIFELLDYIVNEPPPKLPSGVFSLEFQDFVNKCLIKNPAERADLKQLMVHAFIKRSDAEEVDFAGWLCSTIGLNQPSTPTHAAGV
Chain of various kinases (Homo sapiens, UniProt Q08345) (Q08345 19-913): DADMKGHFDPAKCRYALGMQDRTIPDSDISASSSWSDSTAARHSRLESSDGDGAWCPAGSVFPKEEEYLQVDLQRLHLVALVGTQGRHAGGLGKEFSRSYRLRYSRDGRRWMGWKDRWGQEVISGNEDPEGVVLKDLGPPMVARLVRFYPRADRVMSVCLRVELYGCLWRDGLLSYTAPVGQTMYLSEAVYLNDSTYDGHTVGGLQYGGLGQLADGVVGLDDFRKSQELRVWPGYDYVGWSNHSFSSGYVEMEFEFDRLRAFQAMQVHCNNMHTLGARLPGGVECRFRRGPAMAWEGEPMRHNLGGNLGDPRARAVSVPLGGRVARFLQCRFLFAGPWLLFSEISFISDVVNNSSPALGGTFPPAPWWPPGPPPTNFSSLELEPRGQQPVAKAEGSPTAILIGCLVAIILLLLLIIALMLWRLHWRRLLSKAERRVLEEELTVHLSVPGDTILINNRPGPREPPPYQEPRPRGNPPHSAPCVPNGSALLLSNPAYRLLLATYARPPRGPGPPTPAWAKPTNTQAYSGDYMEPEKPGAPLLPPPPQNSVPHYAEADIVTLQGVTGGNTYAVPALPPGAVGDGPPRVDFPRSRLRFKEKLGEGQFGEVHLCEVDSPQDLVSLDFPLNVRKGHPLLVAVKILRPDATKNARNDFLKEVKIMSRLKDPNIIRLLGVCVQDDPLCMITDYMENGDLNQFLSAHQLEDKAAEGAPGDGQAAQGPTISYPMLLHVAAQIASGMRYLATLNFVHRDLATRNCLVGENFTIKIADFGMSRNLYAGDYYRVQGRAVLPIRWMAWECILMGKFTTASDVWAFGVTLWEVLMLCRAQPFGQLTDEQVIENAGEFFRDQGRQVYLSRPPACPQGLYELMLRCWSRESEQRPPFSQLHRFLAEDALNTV
Chain of various kinases (Homo sapiens, UniProt Q15835) (Q15835 whole entry): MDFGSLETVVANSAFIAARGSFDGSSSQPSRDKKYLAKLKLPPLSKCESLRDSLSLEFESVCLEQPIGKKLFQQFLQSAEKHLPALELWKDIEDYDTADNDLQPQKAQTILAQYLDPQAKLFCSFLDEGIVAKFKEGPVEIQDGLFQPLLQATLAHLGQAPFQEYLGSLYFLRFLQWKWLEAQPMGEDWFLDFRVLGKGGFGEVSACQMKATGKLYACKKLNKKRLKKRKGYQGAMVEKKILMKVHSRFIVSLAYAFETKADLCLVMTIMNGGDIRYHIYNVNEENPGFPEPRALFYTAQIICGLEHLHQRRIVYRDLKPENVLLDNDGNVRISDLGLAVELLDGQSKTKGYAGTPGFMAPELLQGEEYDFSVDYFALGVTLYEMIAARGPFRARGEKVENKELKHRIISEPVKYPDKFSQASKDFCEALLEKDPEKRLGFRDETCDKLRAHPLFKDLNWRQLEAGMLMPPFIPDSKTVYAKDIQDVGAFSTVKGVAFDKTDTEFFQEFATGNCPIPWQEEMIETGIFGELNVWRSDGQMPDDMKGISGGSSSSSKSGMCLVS
Chain of various kinases (Homo sapiens, UniProt P52564, S207E/T211E) (P52564 whole entry S207E/T211E): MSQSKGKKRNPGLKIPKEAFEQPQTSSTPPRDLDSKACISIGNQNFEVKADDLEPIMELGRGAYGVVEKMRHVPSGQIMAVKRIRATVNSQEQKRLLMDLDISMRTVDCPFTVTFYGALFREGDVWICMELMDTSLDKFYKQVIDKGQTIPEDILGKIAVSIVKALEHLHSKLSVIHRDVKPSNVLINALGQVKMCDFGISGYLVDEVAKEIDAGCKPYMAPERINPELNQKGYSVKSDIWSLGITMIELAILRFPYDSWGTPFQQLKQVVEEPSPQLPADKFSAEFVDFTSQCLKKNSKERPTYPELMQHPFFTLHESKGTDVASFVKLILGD
Chain of various kinases (Homo sapiens, UniProt Q9HBH9) (Q9HBH9 whole entry): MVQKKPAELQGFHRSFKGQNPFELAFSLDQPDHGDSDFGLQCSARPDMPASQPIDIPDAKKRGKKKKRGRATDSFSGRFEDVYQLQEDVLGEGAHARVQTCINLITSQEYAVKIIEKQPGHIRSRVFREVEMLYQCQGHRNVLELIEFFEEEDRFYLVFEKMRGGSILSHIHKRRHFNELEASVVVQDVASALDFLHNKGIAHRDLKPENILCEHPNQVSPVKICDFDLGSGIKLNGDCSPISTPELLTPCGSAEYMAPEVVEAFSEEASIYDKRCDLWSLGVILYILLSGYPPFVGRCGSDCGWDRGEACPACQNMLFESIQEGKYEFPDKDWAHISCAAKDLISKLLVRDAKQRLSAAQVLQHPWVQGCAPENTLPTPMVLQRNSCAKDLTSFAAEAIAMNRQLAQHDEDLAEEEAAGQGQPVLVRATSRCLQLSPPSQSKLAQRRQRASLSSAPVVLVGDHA

In the case of `COc1ccc2c(c1)[C@]1(C[C@H]1c1ccc3c(/C=C/c4ccc(CN5C[C@@H](C)O[C@@H](C)C5)cc4)n[nH]c3c1)C(=O)N2` [CFI-400945], the “% Inhibition” value [1] is reported as 6%, the “% Inhibition Average” value [2] is reported as 5% and the “% Inhibition Duplicate #1” value [2] is reported as 10%. For the same compound, the “% Inhibition Duplicate #2” value [2] was 1%, the “% Inhibition” value [3] was 45% and 35% and the “% Inhibition” value [4] was 65%. For the same compound, the IC50 [4] was 444 nM, the “% Inhibition” value ([5]; ALK T1151_L1152insT) was 31% and 35% and the “% Inhibition” value ([5]; EGFR (ErbB1) d747-749 A750P) was 12% and 23%. For the same compound, the “% Inhibition” value ([5]; FLT3 ITD) was 45% and 41%, the “% Inhibition” value ([5]; MAP3K7/MAP3K7IP1 (TAK1-TAB1)) was 8% and the “% Inhibition” value [6] was 9% and 8%. For the same compound, the “% Inhibition” value [7] was 26% and 29%, the “% Inhibition” value [8] was 22% and 13% and the “% Inhibition Average” value [9] was 20%. The “% Inhibition Duplicate #1” value [9] was 18%, the “% Inhibition Duplicate #2” value [9] was 22% and the “% Inhibition” value [10] was 4% and 10%. The “% Inhibition Average” value [11] was 3%, the “% Inhibition Duplicate #1” value [11] was 4% and the “% Inhibition Duplicate #2” value [11] was 2%. For the same compound, the “% Inhibition” value [12] was 46% and 45%, the “% Inhibition Average” value [13] was 0% and the “% Inhibition Duplicate #1” value [13] was -4%. The “% Inhibition Duplicate #2” value [13] was 3%, the “% Inhibition” value [14] was -2% and 1% and the “% Inhibition” value ([15]; CDK11 (Inactive)) was -3% and -1%. For the same compound, the “% Inhibition” value ([15]; CDK11/cyclin C) was 16% and 13%, the “% Inhibition” value [16] was -4% and 5% and the “% Inhibition” value [17] was 3% and -4%. The “% Inhibition Average” value [18] was 1%, the “% Inhibition Duplicate #1” value [18] was -2% and the “% Inhibition Duplicate #2” value [18] was 5%. The “% Inhibition” value [19] was -9% and -6%.
